Where two headings read alike, the source gives them in different places.
Tests used:
HepG2 ATCC HB-8065 cells = experiment: Human cell viability / cytotoxicity (CellTiter-Glo, 24 hours); format: cell-based; conditions: HepG2 ATCC HB-8065, 24 hours
Summary of the method: (§1)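 HepG2 cells (15,000/well, MEM with 1% NEAA and 1% pyruvate) were grown 2 days, then exposed to compounds in duplicate for 24 h at 1.28% DMSO. Viability was read as ATP by CellTiter-Glo luminescence relative to DMSO-only wells. IC50 is in μg/mL.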

[1] = target: Leucyl-tRNA synthetase (LeuRS) (Escherichia coli (strain K12), UniProt P07813); experiment: Leucyl-tRNA synthetase enzyme inhibition (AMP-Glo; single point % inhibition at 100 μM and IC50); format: biochemical; conditions: E. coli LeuRS; read-out: Enzyme Inhibition - IC50, E. coli LeuRS
Sequence of Leucyl-tRNA synthetase (LeuRS) (P07813 whole entry, looked up): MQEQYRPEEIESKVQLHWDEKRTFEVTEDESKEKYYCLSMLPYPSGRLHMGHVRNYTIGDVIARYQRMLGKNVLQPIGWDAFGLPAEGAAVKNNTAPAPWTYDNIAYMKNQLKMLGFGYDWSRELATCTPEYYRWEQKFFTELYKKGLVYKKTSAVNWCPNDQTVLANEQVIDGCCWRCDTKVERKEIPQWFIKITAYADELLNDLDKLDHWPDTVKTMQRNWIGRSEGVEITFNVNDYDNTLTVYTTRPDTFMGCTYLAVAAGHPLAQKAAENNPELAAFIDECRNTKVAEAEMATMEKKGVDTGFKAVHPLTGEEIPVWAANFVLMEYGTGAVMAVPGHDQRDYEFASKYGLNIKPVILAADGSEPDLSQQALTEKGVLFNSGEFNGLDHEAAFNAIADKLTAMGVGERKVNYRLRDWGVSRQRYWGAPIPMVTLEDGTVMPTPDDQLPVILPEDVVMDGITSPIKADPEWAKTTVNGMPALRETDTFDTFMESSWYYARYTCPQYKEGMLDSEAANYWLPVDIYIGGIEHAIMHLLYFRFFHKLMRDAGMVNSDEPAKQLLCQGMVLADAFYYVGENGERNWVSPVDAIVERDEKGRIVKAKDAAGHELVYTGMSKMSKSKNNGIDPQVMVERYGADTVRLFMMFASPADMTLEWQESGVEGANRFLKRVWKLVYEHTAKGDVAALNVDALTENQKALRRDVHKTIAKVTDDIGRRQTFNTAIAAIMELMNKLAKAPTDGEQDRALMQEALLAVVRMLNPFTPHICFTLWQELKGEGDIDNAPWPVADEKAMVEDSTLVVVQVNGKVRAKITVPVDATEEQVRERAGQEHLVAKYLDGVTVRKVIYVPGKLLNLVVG

[2] = target: Isoleucyl-tRNA synthetase (IleRS) (Escherichia coli (strain K12), UniProt P00956); experiment: Isoleucyl-tRNA synthetase enzyme inhibition (AMP-Glo; single point % inhibition at 100 μM and IC50); format: biochemical
Sequence of Isoleucyl-tRNA synthetase (IleRS) (P00956 whole entry, looked up): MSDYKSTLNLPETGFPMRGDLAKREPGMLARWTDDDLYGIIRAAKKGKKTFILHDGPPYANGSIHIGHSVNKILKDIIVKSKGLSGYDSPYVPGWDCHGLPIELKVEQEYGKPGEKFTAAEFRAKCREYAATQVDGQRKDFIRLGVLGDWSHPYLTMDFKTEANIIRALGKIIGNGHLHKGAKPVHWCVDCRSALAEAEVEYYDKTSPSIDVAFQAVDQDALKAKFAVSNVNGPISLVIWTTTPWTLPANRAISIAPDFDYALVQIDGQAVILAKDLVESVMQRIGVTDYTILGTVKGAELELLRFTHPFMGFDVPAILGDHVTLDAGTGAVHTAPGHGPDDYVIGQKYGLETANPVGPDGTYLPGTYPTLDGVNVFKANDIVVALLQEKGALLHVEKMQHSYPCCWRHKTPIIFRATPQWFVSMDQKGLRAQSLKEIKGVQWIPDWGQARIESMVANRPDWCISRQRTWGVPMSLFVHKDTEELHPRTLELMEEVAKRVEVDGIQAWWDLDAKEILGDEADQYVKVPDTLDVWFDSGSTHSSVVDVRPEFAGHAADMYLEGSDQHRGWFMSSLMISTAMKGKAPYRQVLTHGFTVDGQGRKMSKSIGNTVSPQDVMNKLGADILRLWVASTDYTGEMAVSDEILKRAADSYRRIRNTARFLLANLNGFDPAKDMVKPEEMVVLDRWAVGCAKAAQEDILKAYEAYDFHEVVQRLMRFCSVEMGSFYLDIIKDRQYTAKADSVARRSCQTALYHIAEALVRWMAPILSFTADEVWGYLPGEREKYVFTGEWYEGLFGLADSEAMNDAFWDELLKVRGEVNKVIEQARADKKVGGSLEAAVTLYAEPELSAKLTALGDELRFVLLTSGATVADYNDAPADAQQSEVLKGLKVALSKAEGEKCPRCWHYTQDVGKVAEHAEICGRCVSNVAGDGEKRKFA
Source text: (§2) Study 1—Enzyme Inhibition
The aminoacylation reaction catalyzed by aminoacyl-tRNA synthetases (aaRS) takes place in two steps. In the first step, aaRS activates its cognate amino acid with ATP; and in the second step the activated amino acid is loaded to its corresponding tRNA. This reaction can be summarized as follows: aaRS+aa+ATP=aaRS-aa-AMP+PPi aaRS-aa-AMP+tRNA=aa-tRNA+AMP+aaRS […]
(§3) wherein: aaRS, aminoacyl-tRNA synthetase; aa, amino acid; aaRS-aa-AMP, enzyme-bound to aminoacyl-adenylate; AMP, adenosine monophosphate; aa-tRNA, aminoacyl-tRNA, PPi, inorganic pyrophosphate.
Isoleucyl-tRNA Synthetase a. Single Point Percentage Inhibition
(§4) The activity of the pathogenic aaRSs was monitored by measuring AMP production using the commercial kit AMP-Glo (Promega, Madison, USA).
Ligand stock solutions were prepared in 100% DMSO at 10 mM concentration. An assay buffer consisting of 100 mM Tris HCl pH 7.6, 40 mM MgCl, 20 mM KCl and 150 mM NaCl was prepared in dH2O. An enzyme solution containing 51.77 μM IleRS was prepared in assay buffer to provide 30 nM final assay concentration and 75 nM reservoir concentration for a 1:2.5 dilution in the assay. A substrate solution was also prepared in assay buffer with 50 mM L-isoleucine, 10 mM ATP and 100 mg/mL tRNA. A final assay concentration of 500 μM L-isoleucine, 5 μM ATP and 1 mg/mL tRNA and reservoir concentration of 833.33 μM L-isoleucine, 8.33 μM ATP and 1.67 mg/mL tRNA was used for a 1:1.66 dilution in assay.
(§5) Enzyme percentage inhibition values were recorded in triplicate at a single point concentration of 100 μM.
(§6) Using the same enzymatic assay in a 384-well plate format, ten point concentration response curves were generated for each compound using a top concentration of 100 μM. The known inhibitor, IleAMS was used as a positive control for the IleRS assay. 100% DMSO was used as a negative control. The IC50 was calculated based on non-linear regression analysis.

[3] = Human cell viability / cytotoxicity (CellTiter-Glo, 24 hours); format: cell-based; conditions: human, HepG2 cells (ATCC HB-8065); HepG2 ATCC HB-8065, 24 hours; read-out: Cytotoxicity in HepG2 ATCC HB-8065 Cell Line, IC50
Summary of the method: as §1

[4] = target: Valyl-tRNA synthetase (ValRS) (Escherichia coli (strain K12), UniProt P07118); experiment: Valyl-tRNA synthetase enzyme inhibition (AMP-Glo; single point % inhibition at 100 μM and IC50); format: biochemical
Sequence of Valyl-tRNA synthetase (ValRS) (P07118 whole entry): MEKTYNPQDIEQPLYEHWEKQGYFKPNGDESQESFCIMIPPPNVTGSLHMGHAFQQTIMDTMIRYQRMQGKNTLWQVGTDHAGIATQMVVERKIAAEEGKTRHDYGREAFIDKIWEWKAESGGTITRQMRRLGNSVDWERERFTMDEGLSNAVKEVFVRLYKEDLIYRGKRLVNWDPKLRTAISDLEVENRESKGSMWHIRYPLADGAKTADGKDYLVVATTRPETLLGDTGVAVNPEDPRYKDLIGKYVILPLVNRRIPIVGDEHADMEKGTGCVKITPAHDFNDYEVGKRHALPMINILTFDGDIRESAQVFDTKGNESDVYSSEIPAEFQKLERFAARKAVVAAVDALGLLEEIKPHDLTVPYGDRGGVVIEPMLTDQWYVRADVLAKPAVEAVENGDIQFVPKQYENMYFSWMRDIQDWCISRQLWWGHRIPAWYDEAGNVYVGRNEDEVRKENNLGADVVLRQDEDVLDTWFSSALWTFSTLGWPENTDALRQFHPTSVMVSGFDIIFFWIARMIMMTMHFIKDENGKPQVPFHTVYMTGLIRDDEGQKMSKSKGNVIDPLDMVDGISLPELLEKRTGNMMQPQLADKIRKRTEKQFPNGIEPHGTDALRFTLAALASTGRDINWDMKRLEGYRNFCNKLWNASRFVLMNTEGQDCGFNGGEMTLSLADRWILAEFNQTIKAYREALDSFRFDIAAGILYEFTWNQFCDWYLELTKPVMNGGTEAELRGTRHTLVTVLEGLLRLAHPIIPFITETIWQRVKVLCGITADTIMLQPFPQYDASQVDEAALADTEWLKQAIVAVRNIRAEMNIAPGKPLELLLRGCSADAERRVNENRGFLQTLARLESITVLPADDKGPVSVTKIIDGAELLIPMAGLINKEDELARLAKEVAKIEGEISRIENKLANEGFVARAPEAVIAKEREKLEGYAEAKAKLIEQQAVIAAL
Source text: as §2
The aminoacylation reaction catalyzed by aminoacyl-tRNA synthetases (aaRS) takes place in two steps. In the first step, aaRS activates its cognate amino acid with ATP; and in the second step the activated amino acid is loaded to its corresponding tRNA. This reaction can be summarized as follows: aaRS+aa+ATP=aaRS-aa-AMP+PPi aaRS-aa-AMP+tRNA=aa-tRNA+AMP+aaRS
as §3
a. Single Point Percentage Inhibition
as §4
Ligand stock solutions were prepared in 100% DMSO at 10 mM concentration. An assay buffer consisting of 100 mM Tris HCl pH 7.6, 40 mM MgCl, 20 mM KCl and 150 mM NaCl was prepared in dH2O. An enzyme solution containing 42.33 μM ValRS was prepared in assay buffer to provide 30 nM final assay concentration and 75 nM reservoir concentration for a 1:2.5 dilution in the assay. A substrate solution was also prepared in assay buffer with 50 mM L-valine, 10 mM ATP and 100 mg/mL tRNA. A final assay concentration of 500 μM L-valine, 2.5 μM ATP and 0.5 mg/mL tRNA and reservoir concentration of 833.33 μM L-valine, […] and 0.83 mg/mL tRNA was used for a 1:1.66 dilution in assay.
as §5
as §6, with “ValAMS” for “IleAMS”, “ValRS” for “IleRS”

Q: With `CC(C)C[C@H](N)C(=O)N=[S@@](N)(=O)c1cccs1.Cl` [ANASIA-007-2, (S)-2-amino-N—((R)-amino(oxo) (thiophen-2-yl)-λ6-sulfanylidene)-4-methyl pentanamide hydrochloride] as the compound, how does the “Cytotoxicity in HepG2 ATCC HB-8065 Cell Line, IC50” value (HepG2 ATCC HB-8065 cells) read?
A: >64.0 µg/mL

Q: And the IC50 [1]?
A: 4.9 µM

Q: For `CC(C)[C@H](N)C(=O)N=S(N)(=O)c1cccc2ccccc12` (some centres unmarked) [ANASIA-025], which IC50 ([2]; E. coli IleRS, read-out: Enzyme Inhibition - IC50, E. coli IleRS) is on record?
A: > 100 µM

Q: What about the IC50 at 24 h [3] of the same compound?
A: > 64 µg/mL

Q: What about the IC50 [4] of the same compound?
A: 21.9 µM

Q: Which IC50 ([4]; E. coli ValRS, read-out: Enzyme Inhibition - IC50, E. coli ValRS) does the source give for `CC(C)[C@H](N)C(=O)N=[S@](N)(=O)c1cccc(OC(F)F)c1` [ANASIA-117-1] here?
A: 47.9 µM

Q: Which IC50 [2] does the source give for `CC(C)[C@H](N)C(=O)N=S(N)(=O)c1cc2sccc2s1` (some centres unmarked) [ANASIA-118] here?
A: 52.9 µM

Q: What about the IC50 [4] of the same compound?
A: 38.6 µM
